Results taken from patent publication US20230212180A1, “SUBSTITUTED PYRAZINE COMPOUND, PHARMACEUTICAL COMPOSITION COMPRISING SAME, AND USE THEREOF” (Sichuan Kelun-Biotech Biopharmaceutical Co., Ltd., priority 2020, published 2023).

Tests used:
SGK (SGK1) = target: T1, SGK (SGK1) (Homo sapiens, UniProt O00141); test: Kinase selectivity test (ThermoFisher); type: biochemical; design: concentration or dose not given beside the values
T1 construct: purchased ThermoFisher USA (contract testing)
T1 sequence (O00141 1-431): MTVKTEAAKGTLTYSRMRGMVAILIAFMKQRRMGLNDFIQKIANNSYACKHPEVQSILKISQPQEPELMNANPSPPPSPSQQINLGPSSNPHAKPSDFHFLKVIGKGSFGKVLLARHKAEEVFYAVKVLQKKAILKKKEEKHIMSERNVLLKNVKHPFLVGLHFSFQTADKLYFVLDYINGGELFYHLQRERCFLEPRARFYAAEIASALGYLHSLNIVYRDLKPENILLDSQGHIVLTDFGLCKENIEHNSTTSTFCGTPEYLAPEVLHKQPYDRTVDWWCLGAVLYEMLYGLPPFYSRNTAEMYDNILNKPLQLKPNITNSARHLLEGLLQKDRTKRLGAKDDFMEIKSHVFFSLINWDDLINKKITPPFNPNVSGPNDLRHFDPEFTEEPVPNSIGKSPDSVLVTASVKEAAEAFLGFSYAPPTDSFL
Experimental: (§1) Test Example 11: Kinase Selectivity Test
(§2) 1. Experimental Purpose: Tests for selectivity of the compounds of the present disclosure for a plurality of kinases were carried out to assess the safety risk of the compounds of the present disclosure.
(§3) 2. Test institution: ThermoFisher USA
(§4) 3. Testing methods: LanthaScreen binding, Z′-LYTE, Adapta
(§5) 4. Test targets: 100 targets in total

GRK4 = target: T2, GRK4 (Homo sapiens, UniProt P32298); test: Kinase selectivity test (ThermoFisher); type: biochemical; design: concentration or dose not given beside the values
T2 construct: purchased ThermoFisher USA (contract testing)
T2 sequence (P32298 whole entry): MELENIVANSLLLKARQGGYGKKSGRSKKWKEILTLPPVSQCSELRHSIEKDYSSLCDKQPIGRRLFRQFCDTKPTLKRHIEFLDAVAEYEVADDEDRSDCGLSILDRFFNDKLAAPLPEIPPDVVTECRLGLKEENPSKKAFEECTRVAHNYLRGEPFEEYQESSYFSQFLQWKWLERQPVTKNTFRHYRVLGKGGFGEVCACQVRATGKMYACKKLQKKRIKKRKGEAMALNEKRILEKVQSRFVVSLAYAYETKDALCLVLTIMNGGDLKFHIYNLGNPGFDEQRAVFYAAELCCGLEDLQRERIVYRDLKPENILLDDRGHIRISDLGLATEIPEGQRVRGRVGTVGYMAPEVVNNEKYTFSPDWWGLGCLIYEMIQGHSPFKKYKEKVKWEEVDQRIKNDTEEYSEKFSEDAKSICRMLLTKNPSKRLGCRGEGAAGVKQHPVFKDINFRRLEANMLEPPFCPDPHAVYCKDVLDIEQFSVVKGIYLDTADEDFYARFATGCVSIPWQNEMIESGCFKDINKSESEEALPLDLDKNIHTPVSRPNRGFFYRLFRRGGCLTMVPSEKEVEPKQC
Experimental: as §1, §2, §3, §4, §5

KDR (VEGFR2) = target: T3, KDR (VEGFR2) (Homo sapiens, UniProt P35968); test: Kinase selectivity test (ThermoFisher); type: biochemical; design: concentration or dose not given beside the values
T3 construct: purchased ThermoFisher USA (contract testing)
T3 sequence (P35968 20-1356): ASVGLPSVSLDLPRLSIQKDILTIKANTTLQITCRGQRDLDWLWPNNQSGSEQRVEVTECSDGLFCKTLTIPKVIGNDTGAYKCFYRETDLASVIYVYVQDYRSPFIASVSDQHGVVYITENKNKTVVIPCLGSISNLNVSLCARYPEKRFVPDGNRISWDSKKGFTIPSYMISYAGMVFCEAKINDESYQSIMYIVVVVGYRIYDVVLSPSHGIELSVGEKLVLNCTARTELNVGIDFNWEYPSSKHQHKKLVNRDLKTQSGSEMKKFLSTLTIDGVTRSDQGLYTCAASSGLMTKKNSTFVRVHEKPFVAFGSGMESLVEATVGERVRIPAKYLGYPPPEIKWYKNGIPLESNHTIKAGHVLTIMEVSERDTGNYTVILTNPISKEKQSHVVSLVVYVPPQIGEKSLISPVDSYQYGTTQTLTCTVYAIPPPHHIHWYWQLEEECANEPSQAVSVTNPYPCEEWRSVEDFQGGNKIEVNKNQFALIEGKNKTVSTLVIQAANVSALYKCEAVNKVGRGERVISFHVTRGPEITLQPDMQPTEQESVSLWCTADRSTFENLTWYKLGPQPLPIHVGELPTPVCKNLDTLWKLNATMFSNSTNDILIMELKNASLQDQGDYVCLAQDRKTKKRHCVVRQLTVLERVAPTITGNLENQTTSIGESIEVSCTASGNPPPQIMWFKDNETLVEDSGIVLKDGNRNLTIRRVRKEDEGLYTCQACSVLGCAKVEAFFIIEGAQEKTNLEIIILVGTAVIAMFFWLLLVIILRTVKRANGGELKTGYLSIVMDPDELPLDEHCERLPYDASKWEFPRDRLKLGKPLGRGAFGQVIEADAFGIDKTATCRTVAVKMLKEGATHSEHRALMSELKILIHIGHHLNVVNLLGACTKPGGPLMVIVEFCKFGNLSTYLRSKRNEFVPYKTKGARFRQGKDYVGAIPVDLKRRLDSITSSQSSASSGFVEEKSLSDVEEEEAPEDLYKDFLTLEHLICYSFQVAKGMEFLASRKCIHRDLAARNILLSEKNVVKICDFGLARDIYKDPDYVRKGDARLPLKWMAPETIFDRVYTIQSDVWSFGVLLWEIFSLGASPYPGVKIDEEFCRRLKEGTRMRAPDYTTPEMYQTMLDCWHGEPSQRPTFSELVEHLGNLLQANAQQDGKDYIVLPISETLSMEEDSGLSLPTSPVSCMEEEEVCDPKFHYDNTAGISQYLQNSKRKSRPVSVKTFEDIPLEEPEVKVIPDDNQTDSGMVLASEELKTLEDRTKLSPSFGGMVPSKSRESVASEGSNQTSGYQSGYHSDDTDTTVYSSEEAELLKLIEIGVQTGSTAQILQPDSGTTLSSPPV
Experimental: as §1, §2, §3, §4, §5

AAK1 = target: T4, AAK1 (Homo sapiens, UniProt Q2M2I8); test: Kinase selectivity test (ThermoFisher); type: biochemical; design: concentration or dose not given beside the values
T4 construct: purchased ThermoFisher USA (contract testing)
T4 sequence (Q2M2I8 whole entry): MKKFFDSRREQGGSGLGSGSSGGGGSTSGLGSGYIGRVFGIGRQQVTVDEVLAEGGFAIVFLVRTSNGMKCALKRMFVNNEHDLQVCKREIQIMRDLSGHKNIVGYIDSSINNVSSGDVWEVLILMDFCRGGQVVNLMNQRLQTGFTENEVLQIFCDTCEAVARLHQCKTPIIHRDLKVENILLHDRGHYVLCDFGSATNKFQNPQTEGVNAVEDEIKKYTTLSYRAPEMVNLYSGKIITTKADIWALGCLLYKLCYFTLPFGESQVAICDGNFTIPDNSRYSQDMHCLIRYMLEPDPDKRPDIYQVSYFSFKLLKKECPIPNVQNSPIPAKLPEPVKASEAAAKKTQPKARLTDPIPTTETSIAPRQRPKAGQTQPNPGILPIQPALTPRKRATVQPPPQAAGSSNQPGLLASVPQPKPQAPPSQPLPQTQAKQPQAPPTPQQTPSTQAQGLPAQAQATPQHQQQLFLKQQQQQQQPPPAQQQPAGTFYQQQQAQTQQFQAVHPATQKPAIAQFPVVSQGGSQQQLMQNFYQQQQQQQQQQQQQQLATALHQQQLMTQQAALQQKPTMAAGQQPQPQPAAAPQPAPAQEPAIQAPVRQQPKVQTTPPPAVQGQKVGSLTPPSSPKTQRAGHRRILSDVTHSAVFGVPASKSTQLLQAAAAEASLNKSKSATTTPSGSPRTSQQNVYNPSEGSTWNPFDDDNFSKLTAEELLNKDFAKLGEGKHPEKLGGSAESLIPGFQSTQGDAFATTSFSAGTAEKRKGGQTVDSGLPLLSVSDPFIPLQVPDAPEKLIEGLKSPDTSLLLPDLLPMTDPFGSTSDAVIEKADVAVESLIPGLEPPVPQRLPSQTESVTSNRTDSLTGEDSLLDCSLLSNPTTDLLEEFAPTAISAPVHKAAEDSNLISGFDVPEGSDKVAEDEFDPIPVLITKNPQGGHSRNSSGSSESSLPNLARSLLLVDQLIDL
Experimental: as §1, §2, §3, §4, §5

FLT3 = target: T5, FLT3 (Homo sapiens, UniProt P36888); test: Kinase selectivity test (ThermoFisher); type: biochemical; design: concentration or dose not given beside the values
T5 construct: purchased ThermoFisher USA (contract testing)
T5 sequence (P36888 27-993): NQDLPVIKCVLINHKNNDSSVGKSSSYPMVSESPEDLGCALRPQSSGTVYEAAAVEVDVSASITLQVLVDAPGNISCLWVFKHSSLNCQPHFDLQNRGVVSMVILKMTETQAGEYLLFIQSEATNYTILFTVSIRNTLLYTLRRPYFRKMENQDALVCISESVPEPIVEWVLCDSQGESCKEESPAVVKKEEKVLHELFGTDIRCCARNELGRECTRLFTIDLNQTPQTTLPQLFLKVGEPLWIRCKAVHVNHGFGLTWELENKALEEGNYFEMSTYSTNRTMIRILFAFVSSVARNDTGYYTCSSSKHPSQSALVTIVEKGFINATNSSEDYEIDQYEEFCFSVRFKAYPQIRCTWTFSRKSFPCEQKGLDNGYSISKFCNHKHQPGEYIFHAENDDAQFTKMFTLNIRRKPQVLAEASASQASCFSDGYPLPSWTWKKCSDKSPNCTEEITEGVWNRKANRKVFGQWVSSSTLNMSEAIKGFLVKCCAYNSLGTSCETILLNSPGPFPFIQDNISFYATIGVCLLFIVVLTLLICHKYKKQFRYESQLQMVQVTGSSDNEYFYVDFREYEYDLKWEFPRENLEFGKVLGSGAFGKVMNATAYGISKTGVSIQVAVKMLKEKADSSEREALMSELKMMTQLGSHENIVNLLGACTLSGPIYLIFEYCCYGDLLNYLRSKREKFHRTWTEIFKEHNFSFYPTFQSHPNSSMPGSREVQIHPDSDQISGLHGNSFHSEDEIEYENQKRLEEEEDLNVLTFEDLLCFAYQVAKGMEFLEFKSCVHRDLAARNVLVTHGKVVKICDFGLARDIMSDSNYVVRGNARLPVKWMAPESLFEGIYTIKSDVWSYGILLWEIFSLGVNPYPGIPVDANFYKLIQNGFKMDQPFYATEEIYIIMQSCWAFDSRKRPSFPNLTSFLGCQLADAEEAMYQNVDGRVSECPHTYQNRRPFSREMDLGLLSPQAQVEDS
Experimental: as §1, §2, §3, §4, §5

[1] = Pharmacokinetic (PK) studies in SD rat; type: in vivo
Experimental: Test Example 6: Pharmacokinetic (PK) Studies in SD Rat
The compound of Example 12 and Control Compound 2 were administered to male SD rats by intravenous injection (IV) and gavage (PO) respectively to estimate the pharmacokinetic properties. Dosing amounts for IV and PO routes were 1 mg/kg and 5 mg/kg, respectively. The solvent for IV route was 5% DMSO+5% Solutol (polyoxyl 15-hydroxystearate)+90% Saline (physiological saline), and the solvent for PO route was 0.5% MC (sodium methylcellulose). Blood was collected at various time points after IV and PO administration. The blood was anticoagulated using EDTA.K2, and centrifuged to obtain plasma samples. The plasma samples were preserved at −80° C.
The plasma samples were subjected to protein precipitation and then to the LC-MS/MS analysis. WinNonlin 6.3 software was used to calculate the pharmacokinetic parameters by non-compartmental model, and the results were listed in Table 6 below.

[2] = rat, in vivo, male SD rats, IV, 1 mg/kg, plasma
[3] = rat, in vivo, male SD rats, PO, 5 mg/kg, plasma

Row | SMILES | Inhibition (%) Target 1 (SGK (SGK1)) | Inhibition (%) Target 2 (SGK (SGK1)) | Inhibition (%) Mean value (SGK (SGK1)) | Inhibition (%) Target 1 (GRK4) | Inhibition (%) Target 2 (GRK4) | Inhibition (%) Mean value (GRK4) | Inhibition (%) Target 1 (KDR (VEGFR2)) | Inhibition (%) Target 2 (KDR (VEGFR2)) | Inhibition (%) Mean value (KDR (VEGFR2)) | Inhibition (%) Target 1 (AAK1) | Inhibition (%) Target 2 (AAK1) | Inhibition (%) Mean value (AAK1) | Inhibition (%) Target 1 (FLT3) | Inhibition (%) Target 2 (FLT3) | Inhibition (%) Mean value (FLT3) | also measured
1 | C[C@@H]1OCC2(CCN(c3ncc(Sc4ccnc(N5CC(C(C)(C)O)C5)c4Cl)nc3CO)CC2)[C@@H]1N [Example 12, 2-(1-(4-(5-((3S,4S)-4-amino-3-methyl-2-oxa-8-azaspiro[4.5]decan-8-yl)-6-(hydroxymethyl)pyrazin-2-ylthio)-3-chloropyridin-2-yl)azetidin-3-yl)propan-2-ol] | 1% | 2% | 1% | 9% | 7% | 8% | 3% | 4% | 3% | 3% | 0% | 1% | 11% | 8% | 9% | pharmacokinetic properties (in words) ([1]; SD rat, 1 mg/kg by injection and 5 mg/kg by mouth): excellent pharmacokinetic properties; AUC(0-t) [1, 2]: 1690 ng·h/mL; Cmax [1, 2]: 373 ng/mL; clearance [1, 2]: 9.8 mL/min/kg; AUC(0-t) [1, 3]: 9680 ng·h/mL; Cmax [1, 3]: 1110 ng/mL
2 | C[C@@H]1OCC2(CCN(c3cnc(Sc4ccnc(N)c4Cl)c(N)n3)CC2)[C@@H]1N [TNO-155, reference compound] | 62% | 57% | 60% | 96% | 95% | 95% | 73% | 73% | 73% | 49% | 46% | 48% | 96% | 97% | 97% | 
